Source: PubChem BioAssay (NCI)
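How tested: cells in 96-well plates exposed to compound for 48 hours at five concentrations. GI50 = concentration required for 50% inhibition of growth. TGI marks complete inhibition of growth.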

Assays:
Test in all cases: inhibition of tumour cell growth, NCI panel, 48 h
[1] = tested on: 786-0 renal
[2] = tested on: A498 renal
[3] = tested on: A549 NSCLC
[4] = tested on: ACHN renal
[5] = tested on: BT-549 breast
[6] = tested on: CAKI-1 renal
[7] = tested on: CCRF-CEM leukemia
[8] = tested on: COLO 205 colon
[9] = tested on: DU-145 prostate
[10] = tested on: EKVX NSCLC
[11] = tested on: HCC-2998 colon
[12] = tested on: HCT-116 colon
[13] = tested on: HCT-15 colon
[14] = tested on: HL-60(TB) leukemia
[15] = tested on: HOP-62 NSCLC
[16] = tested on: HOP-92 NSCLC
[17] = tested on: HS 578T breast
[18] = tested on: HT29 colon
[19] = tested on: IGROV1 ovarian
[20] = tested on: K-562 leukemia
[21] = tested on: KM12 colon
[22] = tested on: LOX IMVI melanoma
[23] = tested on: M14 melanoma
[24] = tested on: MALME-3M melanoma
[25] = tested on: MCF7 breast
[26] = tested on: MDA-MB-231 breast
[27] = tested on: MDA-MB-435
[28] = tested on: MOLT-4 leukemia
[29] = tested on: NCI-H226 lung
[30] = tested on: NCI-H23 lung
[31] = tested on: NCI-H460 lung
[32] = tested on: NCI-H522 lung
[33] = tested on: NCI/ADR-RES ovarian
[34] = tested on: OVCAR-3 ovarian
[35] = tested on: OVCAR-4 ovarian
[36] = tested on: OVCAR-5 ovarian
[37] = tested on: OVCAR-8 ovarian
[38] = tested on: PC-3 prostate
[39] = tested on: RPMI-8226 leukemia
[40] = tested on: RXF 393 renal
[41] = tested on: SF-268 CNS
[42] = tested on: SF-295 CNS
[43] = tested on: SF-539 CNS
[44] = tested on: SK-MEL-2 melanoma
[45] = tested on: SK-MEL-28 melanoma
[46] = tested on: SK-MEL-5 melanoma
[47] = tested on: SK-OV-3 ovarian
[48] = tested on: SN12C renal
[49] = tested on: SNB-19 CNS
[50] = tested on: SNB-75 CNS
[51] = tested on: SW-620 colon
[52] = tested on: T-47D breast
[53] = tested on: TK-10 renal
[54] = tested on: U251 CNS
[55] = tested on: UACC-257 melanoma
[56] = tested on: UACC-62 melanoma
[57] = tested on: UO-31 renal
[58] = tested on: SR leukemia

Cn1ncc2c(Nc3cccc(Cl)c3)nc(Nc3cccc(Cl)c3)nc21 was tested, and the TGI [1] was 4.84 µM, the TGI [2] was 28.9 µM and the TGI [3] was greater than 53.4 µM. The TGI [4] was 29.2 µM, the TGI [5] was 59 µM and the TGI [6] was 30.8 µM. The TGI [7] was 2.89 µM, the TGI [8] was greater than 53.8 µM and the TGI [9] was 40 µM. For the same compound, the TGI [10] was 54.8 µM, the TGI [11] was 27.6 µM and the TGI [12] was greater than 58.3 µM. It also gave a TGI [13] of 30.9 µM, a TGI [14] of 44.9 µM and a TGI [15] of 68.6 µM. The TGI [16] was 44.7 µM, the TGI [17] was 43.9 µM and the TGI [18] was greater than 56.8 µM. It also gave a TGI [19] greater than 66.6 µM, a TGI [20] of 19.2 µM and a TGI [21] greater than 42.2 µM. The TGI [22] was greater than 85.7 µM, the TGI [23] was greater than 58.4 µM and the TGI [24] was 48 µM. For the same compound, the TGI [25] was 32.1 µM, the TGI [26] was greater than 68.3 µM and the TGI [27] was greater than 57.6 µM. For the same compound, the TGI [28] was 47.4 µM, the TGI [29] was greater than 72.3 µM and the TGI [30] was 57.1 µM. The TGI [31] was greater than 30.9 µM, the TGI [32] was 39.1 µM and the TGI [33] was 37.3 µM. For the same compound, the TGI [34] was greater than 66.6 µM, the TGI [35] was 47.6 µM and the TGI [36] was 38.8 µM. It also gave a TGI [37] greater than 100 µM, a TGI [38] of 36 µM and a TGI [39] of 19.8 µM. It also gave a TGI [40] of 11.6 µM, a TGI [41] of 55.8 µM and a TGI [42] of 21.1 µM. For the same compound, the TGI [43] was 52 µM, the TGI [44] was 41.7 µM and the TGI [45] was 41.2 µM. For the same compound, the TGI [46] was greater than 51.6 µM, the TGI [47] was 54 µM and the TGI [48] was greater than 67.5 µM. For the same compound, the TGI [49] was greater than 94 µM, the TGI [50] was 31.1 µM and the TGI [51] was greater than 58.2 µM. It also gave a TGI [52] of 37 µM, a TGI [53] of 27.9 µM and a TGI [54] of 52.1 µM. The TGI [55] was 25.9 µM, the TGI [56] was 38.5 µM and the TGI [57] was 35.4 µM.

With N#C[Se]CCN1C(=O)C2C(C1=O)[C@H]1C=C[C@@H]2S1 (stereo partly specified) the GI50 [1] was 1.97 µM, the TGI [1] was 3.68 µM and the GI50 [2] was 1.51 µM. It also gave a TGI [2] of 3.33 µM, a GI50 [3] of 1.93 µM and a TGI [3] of 4.56 µM. For the same compound, the GI50 [4] was 2.07 µM, the TGI [4] was 3.99 µM and the GI50 [5] was 1.74 µM. For the same compound, the TGI [5] was 3.38 µM, the GI50 [6] was 1.9 µM and the TGI [6] was 3.39 µM. The GI50 [7] was 1.84 µM, the TGI [7] was 6.14 µM and the GI50 [8] was 2.45 µM. For the same compound, the TGI [8] was 6.42 µM, the GI50 [10] was 1.83 µM and the TGI [10] was 4.28 µM. For the same compound, the GI50 [11] was 2.18 µM, the TGI [11] was 5.44 µM and the GI50 [12] was 1.85 µM. It also gave a TGI [12] of 4.35 µM, a GI50 [13] of 2.2 µM and a TGI [13] of 5.77 µM. The GI50 [16] was 1.88 µM, the TGI [16] was 3.94 µM and the GI50 [17] was 1.75 µM. The TGI [17] was 6.21 µM, the GI50 [18] was 2.65 µM and the TGI [18] was 8.98 µM. For the same compound, the GI50 [19] was 1.59 µM, the TGI [19] was 3.48 µM and the GI50 [20] was 3.24 µM. It also gave a TGI [20] of 12 µM, a GI50 [21] of 2.32 µM and a TGI [21] of 5.38 µM. For the same compound, the GI50 [22] was 1.67 µM, the TGI [22] was 4.12 µM and the GI50 [23] was 1.54 µM. It also gave a TGI [23] of 3.62 µM, a GI50 [24] of 1.53 µM and a TGI [24] of 3.65 µM. The GI50 [25] was 2.37 µM, the TGI [25] was 9.19 µM and the GI50 [26] was 2.24 µM. For the same compound, the TGI [26] was 5.2 µM, the GI50 [27] was 1.7 µM and the TGI [27] was 3.26 µM. For the same compound, the GI50 [28] was 1.31 µM, the TGI [28] was 8.06 µM and the GI50 [30] was 2.46 µM. It also gave a TGI [30] of 6.51 µM, a GI50 [31] of 1.93 µM and a TGI [31] of 6.77 µM. It also gave a GI50 [33] of 2.4 µM, a TGI [33] of 7.18 µM and a GI50 [34] of 1.94 µM. The TGI [34] was 3.85 µM, the GI50 [35] was 1.85 µM and the TGI [35] was 6.1 µM. It also gave a GI50 [36] of 2.56 µM, a TGI [36] of 6.4 µM and a GI50 [37] of 2.11 µM. It also gave a TGI [37] of 5.26 µM, a GI50 [38] of 2.11 µM and a TGI [38] of 5.9 µM. The GI50 [39] was 2.04 µM, the TGI [39] was 4.84 µM and the GI50 [40] was 1.63 µM. For the same compound, the TGI [40] was 3.27 µM, the GI50 [41] was 1.95 µM and the TGI [41] was 3.86 µM. The GI50 [42] was 1.83 µM, the TGI [42] was 3.35 µM and the GI50 [43] was 1.69 µM. For the same compound, the TGI [43] was 3.18 µM, the GI50 [44] was 2.44 µM and the TGI [44] was 6.43 µM. The GI50 [45] was 1.92 µM, the TGI [45] was 5.02 µM and the GI50 [46] was 2.02 µM. For the same compound, the TGI [46] was 4.09 µM, the GI50 [47] was 2.67 µM and the TGI [47] was 5.59 µM. It also gave a GI50 [48] of 1.92 µM, a TGI [48] of 4.07 µM and a GI50 [50] of 1.39 µM. It also gave a TGI [50] of 3.85 µM, a GI50 [58] of 1.98 µM and a TGI [58] of 7.7 µM. It also gave a GI50 [51] of 2.87 µM, a TGI [51] of 8.19 µM and a GI50 [52] of 2.52 µM. The TGI [52] was 7.78 µM, the GI50 [53] was 2.16 µM and the TGI [53] was 4.44 µM. For the same compound, the GI50 [54] was 1.8 µM, the TGI [54] was 4.13 µM and the GI50 [55] was 1.97 µM. The TGI [55] was 5.4 µM, the GI50 [56] was 1.98 µM and the TGI [56] was 4.27 µM. It also gave a GI50 [57] of 1.36 µM and a TGI [57] of 2.9 µM.
